# Biological target: T1, Bcl-2 protein (Recombinant Human Bcl-2 Protein) (Homo sapiens, UniProt P10415)
# T1 construct: purchased Novus Biologicals NBP2-34889
# Assay: AS-MS evaluation of binding of the Example 4 mixture library (1200 compounds/well) to Bcl-2, ASMS ratio (%)
# Details: AS-MS, Example 4 mixture library; for ASMS ratio (%) n = 1: Bcl-2, replicate n = 1; for ASMS ratio (%) n = 2: Bcl-2, replicate n = 2
# Outline: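 Recombinant human Bcl-2 at 20 μM final was exposed to a 1200-member compound pool (20 nM per compound) in pH 7.4 Tris-HCl buffer containing NaCl, Tween-20 and DTT. After 1 h at 23 °C, protein–ligand complexes passed SEC spin columns; LC/MS signals were compared with protein-free standard and blank samples to give ASMS ratio.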
# T1 sequence (P10415 whole entry): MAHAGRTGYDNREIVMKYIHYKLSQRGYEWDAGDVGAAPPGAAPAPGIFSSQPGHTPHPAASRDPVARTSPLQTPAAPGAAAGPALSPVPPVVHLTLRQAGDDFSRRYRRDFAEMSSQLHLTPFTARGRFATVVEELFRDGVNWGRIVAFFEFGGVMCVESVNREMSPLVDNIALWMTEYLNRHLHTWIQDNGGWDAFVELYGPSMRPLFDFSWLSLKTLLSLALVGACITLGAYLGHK
SMILES,ASMS ratio (%) n = 1 [%],ASMS ratio (%) n = 2 [%]
CCOc1cncc(-c2cc(CN3CCN(c4ccc(C(=O)NS(=O)(=O)CCC(F)(F)F)nn4)CC3)cc(OC(C)C)c2)c1 [Compound B2N084-01],0.0,0.0
"CCOc1cccc(-c2cc(OC)c(CN3CCN(c4ccc(C(=O)NS(=O)(=O)CCC(F)(F)F)nn4)CC3)c(OC)c2)c1 [Compound B2N085-01, 6-[4-[[4-(3-Ethoxyphenyl)-2,6-dimethoxyphenyl]methyl]piperazin-1-yl]-N-(3,3,3-trifluoropropylsulfonyl)pyridazine-3-carboxamide]",0.0,0.0
"CCOc1cncc(-c2cc(OC)c(CN3CCN(c4ccc(C(=O)NS(=O)(=O)CCC(F)(F)F)nn4)CC3)c(OC)c2)c1 [Compound B2N086-01, 6-[4-[[4-(5-Ethoxypyridin-3-yl)-2,6-dimethoxyphenyl]methyl]piperazin-1-yl]-N-(3,3,3-trifluoropropylsulfonyl)pyridazine-3-carboxamide]",0.0,0.0
"CCOc1cccc(-c2cc(CN3CCN(c4ccc(C(=O)NS(=O)(=O)CCC(F)(F)F)nn4)CC3)cc(C(F)(F)F)c2)c1 [Compound B2N087-01, 6-[4-[[3-(3-Ethoxyphenyl)-5-(trifluoromethyl)phenyl]methyl]piperazin-1-yl]-N-(3,3,3-trifluoropropylsulfonyl)pyridazine-3-carboxamide]",0.0,0.0
"CCOc1cncc(-c2cc(CN3CCN(c4ccc(C(=O)NS(=O)(=O)CCC(F)(F)F)nn4)CC3)cc(C(F)(F)F)c2)c1 [Compound B2N088-01, 6-[4-[[3-(5-Ethoxypyridin-3-yl)-5-(trifluoromethyl)phenyl]methyl]piperazin-1-yl]-N-(3,3,3-trifluoropropylsulfonyl)pyridazine-3-carboxamide]",0.0,0.0
"CCOc1cccc(-c2ccc(CN3CCN(c4ccc(C(=O)NS(=O)(=O)CCC(F)(F)F)nn4)CC3)c3ccccc23)c1 [Compound B2N091-01, 6-[4-[[4-(3-Ethoxyphenyl)naphthalen-1-yl]methyl]piperazin-1-yl]-N-(3,3,3-trifluoropropylsulfonyl)pyridazine-3-carboxamide]",0.0,0.0

# The remaining lines, values ahead:
ASMS ratio (%) n = 1 [%],ASMS ratio (%) n = 2 [%],SMILES
2.5,2.8,"CCOc1cncc(-c2cc(CN3CCN(c4ccc(C(=O)NS(=O)(=O)CCC(F)(F)F)nn4)CC3)cc(OCC)c2)c1 [Compound B2N082-01, 6-[4-[[3-Ethoxy-5-(5-ethoxypyridin-3-yl)phenyl]methyl]piperazin-1-yl]-N-(3,3,3-trifluoropropylsulfonyl)pyridazine-3-carboxamide]"
0.0,0.0,"CCOc1cccc(-c2cc(CN3CCN(c4ccc(C(=O)NS(=O)(=O)CCC(F)(F)F)nn4)CC3)cc(OC(C)C)c2)c1 [Compound B2N083-01, 6-[4-[[3-(3-Ethoxyphenyl)-5-propan-2-yloxyphenyl]methyl]piperazin-1-yl]-N-(3,3,3-trifluoropropylsulfonyl)pyridazine-3-carboxamide]"
,0.0,"CCOc1cccc(-c2cc(CN3CCN(c4ccc(C(=O)NS(=O)(=O)CCC(F)(F)F)nn4)CC3)cc(OC(F)(F)F)c2)c1 [Compound B2N089-01, 6-[4-[[3-(3-Ethoxyphenyl)-5-(trifluoromethoxy)phenyl]methyl]piperazin-1-yl]-N-(3,3,3-trifluoropropylsulfonyl)pyridazine-3-carboxamide]"
0.0,0.0,"CCOc1cncc(-c2cc(CN3CCN(c4ccc(C(=O)NS(=O)(=O)CCC(F)(F)F)nn4)CC3)cc(OC(F)(F)F)c2)c1 [Compound B2N090-01, 6-[4-[[3-(5-Ethoxypyridin-3-yl)-5-(trifluoromethoxy)phenyl]methyl]piperazin-1-yl]-N-(3,3,3-trifluoropropylsulfonyl)pyridazine-3-carboxamide]"
